Assay results taken from ChEMBL document CHEMBL1201862, “PubChem BioAssay data set” (2004).
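48-hour exposure; five concentrations; linearly interpolated endpoints. At the GI50, growth is halved.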 Activity calls are given as the source filed them. No stated cut-off is given here; in the data, active = GI50 up to about 1.1 µM and inactive = higher.

Assays:
Test in all cases: DTP human tumour cell line panel, 48 h
MOLT-4 = test system: MOLT-4
Hs-578T = test system: Hs-578T
HT-29 = test system: HT-29
OVCAR-3 = test system: OVCAR-3
PC-3 = test system: PC-3
NCI-H460 = test system: NCI-H460
MCF7 = test system: MCF7
HOP-62 = test system: HOP-62
HCT-15 = test system: HCT-15
NCI-H226 = test system: NCI-H226
SK-MEL-28 = test system: SK-MEL-28
UACC-257 = test system: UACC-257
K562 = test system: K562
SNB-19 = test system: SNB-19
SK-MEL-5 = test system: SK-MEL-5
UACC-62 = test system: UACC-62
A498 = test system: A498
COLO 205 = test system: COLO 205
HCC 2998 = test system: HCC 2998
BT-549 = test system: BT-549
CCRF-CEM = test system: CCRF-CEM
UO-31 = test system: UO-31
M14 = test system: M14
RPMI-8226 = test system: RPMI-8226
MDA-MB-231 = test system: MDA-MB-231
CAKI-1 = test system: CAKI-1
U-251 = test system: U-251
OVCAR-8 = test system: OVCAR-8
A549 = test system: A549
EKVX = test system: EKVX
ACHN = test system: ACHN
SF-268 = test system: SF-268
SR = test system: SR
SNB-75 = test system: SNB-75
OVCAR-5 = test system: OVCAR-5
786-0 = test system: 786-0
LOX IMVI = test system: LOX IMVI
T47D = test system: T47D
KM12 = test system: KM12
OVCAR-4 = test system: OVCAR-4
TK-10 = test system: TK-10
MDA-MB-435 = test system: MDA-MB-435
SK-OV-3 = test system: SK-OV-3
IGROV-1 = test system: IGROV-1
NCI-H522 = test system: NCI-H522
MDA-N = test system: MDA-N
Malme-3M = test system: Malme-3M
NCI/ADR-RES = test system: NCI/ADR-RES
HCT-116 = test system: HCT-116
RXF 393 = test system: RXF 393
SK-MEL-2 = test system: SK-MEL-2
DU-145 = test system: DU-145
SW-620 = test system: SW-620
SN12C = test system: SN12C
SF-295 = test system: SF-295
HL-60 = test system: HL-60
NCI-H23 = test system: NCI-H23

CNC1=Nc2ccccc2C(=O)N2CSCC12 (stereo not given)
GI50 (MOLT-4): > 100 µM (inactive) | GI50 (Hs-578T): > 100 µM (inactive) | GI50 (HT-29): > 100 µM (inactive) | GI50 (OVCAR-3): > 100 µM (inactive) | GI50 (PC-3): > 100 µM (inactive) | GI50 (NCI-H460): > 100 µM (inactive) | GI50 (MCF7): > 100 µM (inactive) | GI50 (HOP-62): > 100 µM (inactive) | GI50 (HCT-15): > 100 µM | GI50 (NCI-H226): > 100 µM (inactive) | GI50 (SK-MEL-28): > 100 µM (inactive) | GI50 (UACC-257): > 100 µM (inactive) | GI50 (K562): > 100 µM (inactive) | GI50 (SNB-19): > 100 µM (inactive) | GI50 (SK-MEL-5): > 100 µM (inactive) | GI50 (UACC-62): > 100 µM (inactive) | GI50 (A498): > 100 µM (inactive) | GI50 (COLO 205): > 100 µM (inactive) | GI50 (HCC 2998): > 100 µM (inactive) | GI50 (BT-549): > 100 µM (inactive) | GI50 (CCRF-CEM): > 100 µM (inactive) | GI50 (UO-31): > 100 µM (inactive) | GI50 (M14): > 100 µM (inactive) | GI50 (RPMI-8226): > 100 µM (inactive) | GI50 (MDA-MB-231): > 100 µM (inactive) | GI50 (CAKI-1): > 100 µM (inactive) | GI50 (U-251): > 100 µM (inactive) | GI50 (OVCAR-8): > 100 µM (inactive) | GI50 (A549): > 100 µM (inactive) | GI50 (EKVX): > 100 µM (inactive) | GI50 (ACHN): > 100 µM (inactive) | GI50 (SF-268): > 100 µM (inactive) | GI50 (SR): > 100 µM (inactive) | GI50 (SNB-75): > 100 µM (inactive) | GI50 (OVCAR-5): > 100 µM (inactive) | GI50 (786-0): > 100 µM (inactive) | GI50 (LOX IMVI): > 100 µM (inactive) | GI50 (T47D): > 100 µM (inactive) | GI50 (KM12): > 100 µM (inactive) | GI50 (OVCAR-4): > 100 µM (inactive) | GI50 (TK-10): > 100 µM (inactive) | GI50 (MDA-MB-435): > 100 µM (inactive) | GI50 (SK-OV-3): > 100 µM (inactive) | GI50 (IGROV-1): > 100 µM (inactive) | GI50 (NCI-H522): 23.9 µM (inactive) | GI50 (MDA-N): > 100 µM (inactive) | GI50 (Malme-3M): > 100 µM (inactive) | GI50 (NCI/ADR-RES): > 100 µM (inactive) | GI50 (HCT-116): > 100 µM (inactive) | GI50 (RXF 393): > 100 µM (inactive) | GI50 (SK-MEL-2): > 100 µM (inactive) | GI50 (DU-145): > 100 µM (inactive) | GI50 (SW-620): > 100 µM (inactive) | GI50 (SN12C): > 100 µM (inactive) | GI50 (SF-295): > 100 µM (inactive)

COc1ccccc1C(=O)NO
GI50 (MOLT-4): > 100 µM (inactive) | GI50 (Hs-578T): > 100 µM (inactive) | GI50 (HT-29): > 100 µM (inactive) | GI50 (OVCAR-3): > 100 µM (inactive) | GI50 (PC-3): > 100 µM (inactive) | GI50 (NCI-H460): 62.7 µM (inactive) | GI50 (MCF7): > 100 µM (inactive) | GI50 (HOP-62): > 100 µM (inactive) | GI50 (HCT-15): > 100 µM | GI50 (NCI-H226): > 100 µM (inactive) | GI50 (SK-MEL-28): > 100 µM (inactive) | GI50 (UACC-257): > 100 µM (inactive) | GI50 (K562): > 100 µM (inactive) | GI50 (SNB-19): > 100 µM (inactive) | GI50 (SK-MEL-5): > 100 µM (inactive) | GI50 (UACC-62): > 100 µM (inactive) | GI50 (COLO 205): > 100 µM (inactive) | GI50 (HL-60): > 100 µM (inactive) | GI50 (HCC 2998): > 100 µM (inactive) | GI50 (BT-549): > 100 µM (inactive) | GI50 (CCRF-CEM): > 100 µM (inactive) | GI50 (UO-31): > 100 µM (inactive) | GI50 (M14): > 100 µM (inactive) | GI50 (RPMI-8226): > 100 µM (inactive) | GI50 (MDA-MB-231): > 100 µM (inactive) | GI50 (CAKI-1): > 100 µM (inactive) | GI50 (U-251): > 100 µM (inactive) | GI50 (OVCAR-8): > 100 µM (inactive) | GI50 (A549): > 100 µM (inactive) | GI50 (EKVX): > 100 µM (inactive) | GI50 (ACHN): > 100 µM (inactive) | GI50 (SF-268): > 100 µM (inactive) | GI50 (SR): > 100 µM (inactive) | GI50 (SNB-75): > 100 µM (inactive) | GI50 (OVCAR-5): > 100 µM (inactive) | GI50 (786-0): > 100 µM (inactive) | GI50 (LOX IMVI): > 100 µM (inactive) | GI50 (T47D): > 100 µM (inactive) | GI50 (KM12): 39.5 µM (inactive) | GI50 (OVCAR-4): > 100 µM (inactive) | GI50 (TK-10): > 100 µM (inactive) | GI50 (MDA-MB-435): > 100 µM (inactive) | GI50 (SK-OV-3): > 100 µM (inactive) | GI50 (NCI-H23): > 100 µM (inactive) | GI50 (IGROV-1): > 100 µM (inactive) | GI50 (NCI-H522): 49.1 µM (inactive) | GI50 (MDA-N): > 100 µM (inactive) | GI50 (NCI/ADR-RES): > 100 µM (inactive) | GI50 (HCT-116): > 100 µM (inactive) | GI50 (RXF 393): > 100 µM (inactive) | GI50 (SK-MEL-2): > 100 µM (inactive) | GI50 (DU-145): > 100 µM (inactive) | GI50 (SW-620): > 100 µM (inactive) | GI50 (SN12C): > 100 µM (inactive) | GI50 (SF-295): > 100 µM (inactive)
